Results taken from patent publication US20110098223A1, “USE OF THE PAT NANOPEPTIDE IN THE TREATMENT OF AUTOIMMUNE DISEASES” (priority 2008, published 2011).

System: Rats of OFA (SD) strain
Experiment: Arthritis induced by Freund's adjuvant (Mycobacterium butyricum) in the rat
Format: in vivo
Method: We used the model of arthritis induced by Freund' adjuvant as described in the article of Milan et al., J Neurosci 1986; 6: 899-906. The rats are administered with Mycobacterium butyricum develop usually a severe polyarthritis which resembles to that in human. Rats of OFA (SD) strain (Oncins France Strain A) weighing approximately 200 g received an […] of a 10 mg/ml Mycobacterium butyricum solution at the articulation of the right ankle. For all the measured parameters, the rats were divided into 5 groups (8 rats/group) in the following way: • reference group: the rats received a paraffin injection instead of the solution of Mycobacterium butyricum (no induced arthritis) then receive an intraperitoneal injection of saline solution; • arthritic group+injection of saline solution; • arthritic group+intraperitoneal injection of 3 mg/kg indomethacin; the indomethacin being a NSAID classically used as reference in this kind of test; • arthritic group+intraperitoneal injection of […]; • arthritic group+intraperitoneal injection of […]. The products are administered 5 times per week during 3 weeks. At the beginning of the experimentation (day 0), one determines the initial values for the different parameters (volume of the leg, macroscopic clinical score, sedimentation test and hypersensitivity). During the experiment, several parameters are measured: • the volume of the leg (“paw latency duration”); • the globular sedimentation test (“Erythrocyte Sedimentation rate”); • the macroscopic score: • “0” means that no sign of arthritis was detected; • “1” means that a swelling or an inflammation was detected on a leg; • “2” means that a swelling or an inflammation was detected on two legs; • “3” means that a swelling or an inflammation was detected on at lest 3 legs; • “4” means that a swelling or an inflammation was detected on the 4 legs. • hypersensitivity according to the plantar test: carried out according to Yukinori Nagakura and al, Allodynia and hyperalgesia in adjuvant-induced arthritic rats: time course of progression and efficacy of analgesics, JPET 306: 490-497, 2003, or in Andersen M L and al “Evaluation of acute and chronic treatments with Harpagophytum procumbens one Freund's adjuvant-induced arthritis in rats”. J. Ethnopharmacol. 2004 April; 91 (2-3): 325-30; • the erythrocyte sedimentation rate (ESR): the increase in this one generally accompanies the clinical symptoms met in induced arthritis. The ESR is measured in the arthritic rats (at Day 21) 1 hour and 2 hours after the injection of PAT or indomethacin, according to the protocol of Mahajan S G, et al., Protective Effect of Ethanolic Extract of Seeds of Moringa will oleifera Lam. Against Inflammation Associated with Development of Arthritis in Rats. J. Immunotoxicol. 2007 January; 4 (1): 39-47.

COc1ccc2c(c1)c(CC(=O)O)c(C)n2C(=O)c1ccc(Cl)cc1 [indomethacin]
hypersensitivity measured by the plantar test (Day 16, PAT at the 2 doses, indomethacin, equivalent to the non-arthritic reference group, FIG. 6): very reduced
erythrocyte sedimentation rate (ESR) (arthritic rats, Day 21, FIG. 7): reduced in a very important way
clinical macroscopic score (compared to arthritic rats which received saline solution, until Day 21, FIG. 5): significant reduction
volume of the leg (during the first 12 days, PAT 0.4 and 4 μg/kg i.p., indomethacin 3 mg/kg i.p., 5 times per week, FIG. 4): do not have a notable effect
inflammation and volume of the leg (from Day 14 until Day 21, PAT 0.4 and 4 μg/kg i.p., indomethacin 3 mg/kg i.p., FIG. 4): notable reduction
